Laboratory results published in ChEMBL document CHEMBL2074308, “5'-Amino acid esters of antiviral nucleosides, acyclovir, and AZT are absorbed by the intestinal PEPT1 peptide transporter” (Pharm Res, 1998).

Legend:
[1] = target: T1, Solute carrier family 15 member 1 (Homo sapiens, UniProt P46059); test: TP_TRANSPORTER: inhibition of Gly-Sar uptake (Gly-Sar: 20 uM) in PEPT1-expressing CHO cells; type: functional, cell-based
T1 sequence (P46059 whole entry): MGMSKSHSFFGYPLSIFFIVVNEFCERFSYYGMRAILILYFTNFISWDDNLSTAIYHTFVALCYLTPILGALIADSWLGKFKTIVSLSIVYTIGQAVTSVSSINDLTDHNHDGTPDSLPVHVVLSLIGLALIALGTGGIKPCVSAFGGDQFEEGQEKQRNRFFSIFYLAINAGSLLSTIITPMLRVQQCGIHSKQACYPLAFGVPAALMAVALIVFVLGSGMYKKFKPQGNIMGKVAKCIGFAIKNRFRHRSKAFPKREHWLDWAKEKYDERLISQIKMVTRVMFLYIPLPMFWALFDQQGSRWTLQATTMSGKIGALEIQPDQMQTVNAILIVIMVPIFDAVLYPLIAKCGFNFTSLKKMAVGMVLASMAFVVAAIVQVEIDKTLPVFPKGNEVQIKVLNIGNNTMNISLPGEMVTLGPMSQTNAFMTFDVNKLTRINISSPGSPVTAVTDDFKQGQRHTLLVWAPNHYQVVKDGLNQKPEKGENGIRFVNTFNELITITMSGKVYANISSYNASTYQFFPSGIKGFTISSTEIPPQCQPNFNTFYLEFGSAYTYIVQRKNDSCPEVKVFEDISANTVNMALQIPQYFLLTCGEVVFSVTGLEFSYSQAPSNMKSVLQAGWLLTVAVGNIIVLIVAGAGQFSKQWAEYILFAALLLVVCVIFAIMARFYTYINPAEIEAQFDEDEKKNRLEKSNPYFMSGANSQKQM

[2] = target: T1, Solute carrier family 15 member 1; test: TP_TRANSPORTER: inhibition of Gly-Sar uptake, L-form (Gly-Sar: 20 uM) in PEPT1-expressing CHO cells; type: functional, cell-based
[3] = target: T1, Solute carrier family 15 member 1; test: TP_TRANSPORTER: inhibition of Gly-Sar uptake, D-form (Gly-Sar: 20 uM) in PEPT1-expressing CHO cells; type: functional, cell-based
[4] = substrate: CC(C)[C@H](N)C(=O)OCCOCn1cnc2c(=O)nc(N)[nH]c21; details: Caco-2
Description: TP_TRANSPORTER: transepithelial transport (apical to basal), L-form in Caco-2 cells

For `CC1=C(C(=O)O)N2C(=O)[C@@H](NC(=O)[C@H](N)C3=CCC=CC3)[C@H]2SC1` [CEPHRADINE], the IC50 [1] was 15000 µM.

`CCOC(=O)[C@H](CCc1ccccc1)N[C@@H](C)C(=O)N1CCC[C@H]1C(=O)O` [ENALAPRIL] showed an IC50 [1] of 15000 µM.

For `NCC(=O)OCCOCn1cnc2c(=O)[nH]c(N)nc21` [GLYCYL ESTER OF ACYCLOVIR], the IC50 [1] was 1400 µM.

Work on `CC(C)[C@H](N)C(=O)OCCOCn1cnc2c(=O)[nH]c(N)nc21` [VALACYCLOVIR] yielded an IC50 [2] of 1100 µM, an IC50 [3] of 3400 µM and an IC50 [1] of 400 µM.

B1: Solute carrier family 15 member 1 (Homo sapiens), P46059 (protein)
chain: MGMSKSHSFFGYPLSIFFIVVNEFCERFSYYGMRAILILYFTNFISWDDNLSTAIYHTFVALCYLTPILGALIADSWLGKFKTIVSLSIVYTIGQAVTSVSSINDLTDHNHDGTPDSLPVHVVLSLIGLALIALGTGGIKPCVSAFGGDQFEEGQEKQRNRFFSIFYLAINAGSLLSTIITPMLRVQQCGIHSKQACYPLAFGVPAALMAVALIVFVLGSGMYKKFKPQGNIMGKVAKCIGFAIKNRFRHRSKAFPKREHWLDWAKEKYDERLISQIKMVTRVMFLYIPLPMFWALFDQQGSRWTLQATTMSGKIGALEIQPDQMQTVNAILIVIMVPIFDAVLYPLIAKCGFNFTSLKKMAVGMVLASMAFVVAAIVQVEIDKTLPVFPKGNEVQIKVLNIGNNTMNISLPGEMVTLGPMSQTNAFMTFDVNKLTRINISSPGSPVTAVTDDFKQGQRHTLLVWAPNHYQVVKDGLNQKPEKGENGIRFVNTFNELITITMSGKVYANISSYNASTYQFFPSGIKGFTISSTEIPPQCQPNFNTFYLEFGSAYTYIVQRKNDSCPEVKVFEDISANTVNMALQIPQYFLLTCGEVVFSVTGLEFSYSQAPSNMKSVLQAGWLLTVAVGNIIVLIVAGAGQFSKQWAEYILFAALLLVVCVIFAIMARFYTYINPAEIEAQFDEDEKKNRLEKSNPYFMSGANSQKQM
In the case of B1, the Km [4] is reported as 292 µM.
